The text below walks through data of US20050020544A1, “Bicyclic CB2 cannabinoid receptor ligands” (priority 2002, published 2005).

One test has as its target T1, human CB1 receptor (Homo sapiens, UniProt P21554).
T1 construct: purchased Perkin Elmer/NEN; host or cells: HEK-293 cells, stably transfected (membranes)
Description: biochemical. Format: binding. The following applies: displacement of [3H]CP55940, hCB1 HEK-293 membranes; read-out: CB1 IC50. The procedure:
(§1) In the present invention, binding affinity is represented by the IC50 value, namely the concentration of a test compound that will displace 50% of a radiolabeled agonist from the CB receptors. […] Preferably these ratios will be obtained for human CB1 and CB2 receptors. The selectivity toward CB2, denoted CB2/CB1 affinity, is calculated as the IC50 value obtained by the test compound for the displacement of the CB1 specific radioligand divided by the IC50 value obtained for the displacement of the CB2 specific radioligand, i.e. the IC50 CB1/IC50 CB2.
The CB1 binding assays were performed by testing the ability of the new compounds to displace [^3H]CP55940 from the CB1 receptor on membranes derived from hCB1 stably transfected HEK-293 cells (Perkin Elmer/NEN). Membranes were diluted in the assay buffer (50 mM Tris-HCl, 2.5 mM EDTA, 5 mM MgCl2, 1 mg/ml BSA, pH=7.4) to 500 μg protein/ml. 50 μl of diluted membranes (25 μg) were incubated with [^3H]CP55940 in the presence or absence of the bicyclic test compounds in a total volume of 0.5 ml. Tested compounds were dissolved in DMSO and diluted in the assay buffer to a final concentration of 0.1% solvent. Control samples were added with identical amount of vehicle. Non-specific binding was measured by the addition of 10 μM of WIN 55212-2. Following 1.5 hours incubation at 30° C. reactions were filtered through Whatman 934A/H filters (presoaked with 0.1% Polyethylenimine (PEI)).
(§2) Binding to CB1 is measured by competitive inhibition of [^3H]CP55940 in HEK-293 cells stably transfected with the human CB1 receptor gene. Binding to CB2 is measured by competitive inhibition of [^3H]WIN55212-2 in CHO cells stably transfected with the human CB2 receptor gene.

For a further test, the system named is ICR male mice. Description: Tail flick model for acute peripheral pain, i.p. The following applies: 10 mg/kg i.p., 330 minutes (five and a half hours). Format: in vivo, mouse. The procedure: ICR male mice (20-30 g average body weight, Harlan, Israel) were injected i.p. at the volume dose of 5 ml/kg. Each treatment group contained at least 6 animals. Morphine HCl was used as positive control at the final dose of 5 mg/kg. Its vehicle, saline, was also included as control. The test compounds were dissolved in CREMOPHOR EL®:ethanol and diluted 1:20 in saline prior to injection, this second type of vehicle was also included as negative control. The final dose injected varied from 0.1 to 10 mg/kg. At predetermined time points after treatment injection, the animals were placed in the tail flick system (Socrel, model DS 20). Animals were gently held while their tails were located above the photoelectric cell. The tails were then illuminated (21V) at 2 cm from the distal tip and the latency time, measured in seconds, was recorded in duplicates. At the end of the study, the animals were euthanized by i.p. injection of 100 mg/kg sodium pentobarbitone.
Two parameters were used to analyze the results, the latency time and the % of animals showing analgesia. […] The results in both cases are expressed as mean±SE. The differences between the latency times or the % of animals showing analgesia among various treatment groups was analyzed by analysis of variance (ANOVA) followed by post-hoc Tukey's test (for latency) or Fisher's exact test (for % animals). A value of p<0.05 is considered to be statistically significant.

Another test deals with Male Sprague Dawley rats. Nature of the test: Inflammatory pain: carrageenan paw edema in rats, thermal and mechanical stimuli. Format: in vivo, rat. The following applies: 10 mg/kg i.p., three hours. The procedure:
Male Sprague Dawley rats (200 g average body weight, Harlan, Israel) are transiently sedated by placement on dry ice for the duration of the injections. […] Before induction of inflammatory pain and three hours after injection, the animals reactions to pain stimuli were tested in two systems. The first stimulus was thermal and assessed by the Plantar Test according to Hargreaves, using Ugo Basile Model 7370. The scale was set to an intensity of 50 arbitrary units. The latency time till the animal lift a paw as a reaction to the thermal stimulus was recorded for both the inflamed and non-inflamed hind paws. The second stimulus was mechanical (tactile) and assessed using a Dynamic Plantar Sesthesiomether (Ugo Basile Model 73400-002).
The results are measured as the differences between the two hind paws at time 0 and 3 hours both as ALT, for the latency time in the thermal part of the study, and as ΔForce, for the mechanical part of the study.
A general note: The carrageenan paw model is a standard test of acute inflammation.

The test system of test [1] is PGE2 secretion from activated RAW 264.7 macrophages. Nature of the test: Inhibition of PGE2 in LPS activated macrophages (ELISA). Format: cell-based, mouse. The following applies: Mus musculus, RAW264.7; 4 hours after activation, doses 1 μM to 20 μM. An excerpt:
(§3) The technique used to quantify the amount of a given protein in a liquid sample, either tissue culture supernatant or body fluid, is based on Enzyme Linked ImmunoSorbent Assay (ELISA) methodology. Either commercially available or established in house, the assay is based on the capture of the protein of interest by specific antibodies bound to the bottom of an ELISA plate well. Unbound material is washed away, the captured protein is then exposed to a secondary antibody generally labeled with horseradish peroxidase (HRP) or alkaline phosphatase (ALP). Again the unbound material is washed away, the samples are then incubated with the appropriate substrate yielding a calorimetric reaction. The reaction is stopped and reading is performed in a spectrophotometer at the appropriate wavelength. Samples are tested at least in duplicate and the appropriate standard curve, consisting of serial dilutions of the recombinant target protein, is incorporated on each plate. Concentration of the protein in the sample is calculated from the standard curve.
(§4) RAW 264.7 macrophages, a mouse cell line (ATCC # TIB-71), were grown in Dulbecco's modified Eagle's medium (DMEM) with 4 mM L-glutamine adjusted to contain 1.5 g/L sodium bicarbonate, 4.5 g/L glucose, and 10% heat inactivated fetal bovine serum. Cells were grown in tissue culture flasks and seeded at appropriate density into 24 wells tissue culture plates. 0.5×10^6 Raw cells in one milliliter were stimulated with 2 μg/ml Lipopolysaccharide E. coli 055:B5 (DIFCO Laboratories). The mouse macrophages were pre-treated for one hour with controls or 10 μM of bicyclic CB2 ligands and later on activated with LPS. Dexamethasone was used as a positive control at 50 nM. Supernatant was collected 4 hours (for PGE2) and 24 hours (for IL-1β and TNF-α) after activation, and the levels of the inflammatory agent under study were determined by ELISA, as previously described. Inhibition was calculated versus vehicle treated cells.
The activation of the macrophages is performed as previously described. The levels of PGE2 are measured in an ELISA assay as previously described. Inhibition is calculated versus vehicle treated cells. […] Results are depicted in FIG. 2B.
For orientation: An ELISA detects its analyte on a solid surface through an enzyme-linked reagent.

Test [2] concerns the target T2, human CB2 receptor (Homo sapiens, UniProt P34972). Description: biochemical. Format: binding. Details: purchased Perkin Elmer/NEN; host or cells: CHO cells, stably transfected (membranes). The following applies: for CB2/CB1 affinity ratio: IC50 CB1/IC50 CB2; for pIC50: displacement of [3H]WIN 55212-2, hCB2 CHO membranes. The procedure: as §1
The affinities of the novel bicyclic analogs to the CB2 receptor were determined by their ability to displace [^3H]WIN 55212-2 from the receptor in membranes derived from hCB2 stably transfected CHO cells (Perkin Elmer/NEN). Membranes were diluted in assay buffer (10 mM HEPES, 1 mM MgCl2, 1 mM EDTA, 0.3 mg/ml BSA, pH=7.4) to 500 μg protein/ml. 50 μl of diluted membranes (25 μg) were incubated with 0.8 nM of [^3H]WIN 55212-2 in the presence or absence of several concentrations of the bicyclic test compounds in a total volume of 1 ml. Tested compounds were dissolved and diluted as previously described for the hCB1 assay. Non-specific binding was measured by the addition of 10 μM CP 55940. Following 40 minutes incubation at 30° C. reactions were filtered as previously described. Filters for all binding assays were counted in a β-counter and log of analog concentration versus % of binding was plotted. IC50 values were extrapolated from this plot.
as §2

The test system of test [3] is TNF-α secretion from activated RAW 264.7 macrophages. Description: Inhibition of TNF-α in LPS activated macrophages (ELISA). The format is cell-based, mouse. The following applies: doses up to 20 μM.
From the text: as §3, §4
The activation of the macrophages is performed as previously described. The levels of TNF-α are measured in an ELISA assay as previously described. Inhibition is calculated versus vehicle treated cells.

In test [4] the target is T2, human CB2 receptor. Nature of the test: Adenylylcyclase assay: forskolin-activated cAMP in CB2 transfected HEK-293 cells. The format is cell-based. The following applies: CB2 receptor transfected HEK-293, 1 μM forskolin. The procedure: Cannabinoids and derivatives bind to G-protein-coupled CB1 and CB2 receptors and exert their activity via the inhibition of adenylylcyclase activity. An adenylylcyclase assay forms a basis for the functional analysis of the compounds by determining their capacity to inhibit or promote forskolin-activated cAMP production. The assay is carried out according to Chin et al. (Chin, C. N. et al., J. Neurochem. 70: 366-73, 1998). Briefly, HEK-293 human kidney cells (ATCC#CRL-1573) stably transfected with either the human CB1 or CB2 receptor (cDNA) were grown in DMEM supplemented with 10% fetal calf serum, 1% Penicillin-Streptomycin and 2 mM L-glutamine. Cells were seeded in 24 wells plate at 5×10^4 cells/well and incubated for 48 hours. Medium was then removed and the adherent cells were washed with PBS. Two hundred μl of serum free medium supplemented with 0.2 mM Ro 20-1724, 0.25% BSA, and 20 mM HEPES was then added to each well. The cells were then activated with 1 μM forskolin in presence of the bicyclic test compounds in concentrations ranging from 10 pM up to 1 μM. The activated cells were then incubated at 37° C. for 20 minutes and the reaction terminated with 1.2 M HCl to a final concentration of 0.1 M. Cells were lyzed by freeze and thaw and the lysate was neutralized with 2 M HEPES, pH 7.5. cAMP was measured in 50 μl aliquots using the [^3H]-cAMP assay system (Amersham).
This experiment was first performed on CB2 receptor transfected cells.

pIC50: −log10 of the molar value.

T2 sequence (P34972 whole entry): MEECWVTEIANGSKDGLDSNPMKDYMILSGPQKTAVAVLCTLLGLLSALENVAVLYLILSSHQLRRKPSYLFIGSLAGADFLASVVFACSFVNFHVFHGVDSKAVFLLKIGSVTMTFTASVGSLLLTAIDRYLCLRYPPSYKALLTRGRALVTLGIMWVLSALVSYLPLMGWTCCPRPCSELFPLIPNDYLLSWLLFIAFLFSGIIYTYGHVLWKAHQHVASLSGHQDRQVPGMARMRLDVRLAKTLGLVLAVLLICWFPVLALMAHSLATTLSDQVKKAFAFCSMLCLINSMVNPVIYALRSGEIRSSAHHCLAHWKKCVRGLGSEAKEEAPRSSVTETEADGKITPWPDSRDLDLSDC
T1 sequence (P21554 whole entry): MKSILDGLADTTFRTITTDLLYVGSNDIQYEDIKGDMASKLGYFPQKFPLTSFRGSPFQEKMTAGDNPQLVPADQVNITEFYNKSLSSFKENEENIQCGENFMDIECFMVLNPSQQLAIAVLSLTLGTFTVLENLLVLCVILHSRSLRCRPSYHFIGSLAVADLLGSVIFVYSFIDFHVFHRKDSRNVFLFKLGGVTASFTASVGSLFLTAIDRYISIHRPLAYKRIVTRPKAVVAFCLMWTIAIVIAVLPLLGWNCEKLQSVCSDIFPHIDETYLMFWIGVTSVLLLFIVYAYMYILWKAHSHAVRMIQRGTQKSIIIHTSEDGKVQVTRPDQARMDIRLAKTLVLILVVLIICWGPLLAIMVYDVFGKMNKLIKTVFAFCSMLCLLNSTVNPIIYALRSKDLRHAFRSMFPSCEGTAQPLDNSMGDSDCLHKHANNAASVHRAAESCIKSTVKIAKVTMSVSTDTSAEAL

On to `CC(C)(CCCCBr)c1cc(O)c(C2CC(=O)C3CC2C3(C)C)c(O)c1` (single isomer, unassigned; (-)) [Compound N, (−)-4-[4-(5-Bromo-1,1-Dimethyl-pentyl)-2,6-dihydroxy-phenyl]-6,6-dimethyl-bicyclo[3.1.1]heptan-2-one], for which, on human CB1 receptor, the pIC50 (in general, the negative decadic logarithm of the IC50, by convention in mol/L) was 7.30. In addition, in the test on ICR male mice, the “% animals showing increased analgesia” value is “about 60%” and the latency time worked out at 5.4 s. Further, in the test with Male Sprague Dawley rats, the “ΔForce (tactile stimulus)” value amounted to 6 g and the “ΔLT (thermal stimulus)” value was found to be 2 s. Moreover, the negative logarithm of the IC50 (pIC50) in test [1] was 5.15. On human CB2 receptor [2], the CB2/CB1 affinity ratio is 139 and the pIC50 was 9.44. Further, the “effect on TNF-α secretion” value in test [3] is “none of them did significantly affect TNF-α secretion”.
Regarding `CC(C)(CCCCC#N)c1cc(O)c([C@H]2CC(=O)[C@H]3C[C@@H]2C3(C)C)c(O)c1` [Compound P, (−)-4-[4-(1,1-Dimethyl-pentyl-5-nitrile)-2,6-dihydroxy-phenyl]-6,6-dimethyl-bicyclo[3.1.1]heptan-2-one], the values for the pIC50 (on human CB1 receptor; in test [1]; on human CB2 receptor [2]) were 6.64, 4.74 and 8.81, respectively. At human CB2 receptor [2], the CB2/CB1 affinity ratio came to 146. For the same compound, the “effect on TNF-α secretion” value in test [3] was “none of them did significantly affect TNF-α secretion”.
Turning to `CCCCCCC(C)(C)c1cc(OC(=O)CCC(=O)O)c([C@H]2CC(=O)[C@H]3C[C@@H]2C3(C)C)c(OC(=O)CCC(=O)O)c1` [Compound S, 4-{4-[1,1-Dimethyl-heptyl]-2,6-bisuccinate-phenyl}-6,6-dimethyl-bicyclo[3.1.1]heptan-2-one], the pIC50 was 6.93 at human CB1 receptor, 9.80 on human CB2 receptor [4] (read-out: IC50 inhibition of cAMP level) and 8.82 at human CB2 receptor [2]. In addition, the inhibition (as a rule, the change of the read-out against control, counted positive when it falls) at 1 µM at human CB2 receptor [4] (HEK293, read-out: % inhibition at 1 μM) is 58%. On human CB2 receptor [2], the CB2/CB1 affinity ratio turned out to be 77.
